Assay results reported in US20240009269A1 (priority 2020, published 2024).
Like-named read-outs stand apart in the source and are kept apart here.

Columns and labels:
[1] = tested on: human cortical neurons (HCNs, HCN-2 cells)
dhBMECs in microvessels = assay: Analysis of cell behavior in tissue-engineered microvessels; assay type: cell-based, human
Description: To monitor cell dynamics, cell loss and proliferation events were counted manually. Rates of cell loss (% h^−1), division (% h^−1), turnover (% h^−1), and cell loss at the site of a focal leak (%) were quantified from phase contrast imaging sequences, as reported previously. Briefly, the total number of endothelial cells was counted manually for each microvessel plane, utilizing a region approximately 100 μm wide corresponding to about a fifth of the channel circumference. Cell loss was identified by observing the removal of a cell from the microvessel. Cell loss from the monolayer occurred through two processes: (1) apoptotic loss, in which a cell constricts, releases its contents into the vessel lumen, which is then removed from the monolayer over a period of 20-60 minutes, and (2) non-apoptotic loss, in which a cell swells and disappears from the monolayer over a period of 2-6 minutes. Cell division was identified by observing cell compression, alignment of chromosomes, and the formation of daughter cells. The rate of turnover (% h^−1) is the difference between the rate of cell division and the rate of cell loss. A cell loss event was identified to be at the site of a focal leak if it occurred within <50 μm and <4 minutes of the occurrence of a focal leak. For a limited set of experiments, the WTC iPSC line [Kreitzer, F. R., et al., Am J Stem Cells, 2013. 2(2): p. 119-31] with GFP-tagged zona occludens-1 (Allen Cell Institute) was used to facilitate live-cell monitoring of tight junction organization.
Confocal z-stacks (0.4 μm in thickness) at 40× magnification were obtained on a swept field confocal microscope system (Prairie Technologies). Illumination was provided by an MLC 400 monolithic laser combiner (Keysight Technologies). Complete reconstruction of the microvessel lumen required approximately four hundred slices. Confocal imaging was conducted before, during, and after exposure to 50 μM·minute melittin treatment.

[2] = tested on: mouse brain (blood-brain barrier)
Description: Briefly, male C57BL/6J mice (n=43, 6-8 weeks old, 20-25 g, Jackson Laboratory) were anesthetized with 2% isoflurane. The common carotid artery (CCA) bifurcation was exposed and the occipital artery branching off from the external carotid artery (ECA) was coagulated. The ECA and the pterygopalatine artery (PPA) were temporarily ligated with 4-0 silk sutures. A temporary ligature using a 4-0 suture was placed on the carotid bifurcation and the proximal CCA was permanently ligated. A microcatheter (PE-8-100, SAI Infusion Technologies) was flushed with 2% heparin (1,000 U mL^−1, heparin sodium, Upjohn), inserted into the CCA via a small arteriotomy, and advanced into the internal carotid artery (ICA).
For each animal, 150 μL of solution was infused at a rate of 150 μL minute^−1. […] The brains were harvested immediately after Evans Blue injection, sectioned in brain slicer matrix (Zivic Instruments) to produce 1 mm slabs.
Animal anesthesia was maintained at 1.5-2% during the MRI scan. Mice were placed on a water-heated animal bed equipped with temperature and respiratory control. Respiration was monitored and maintained at 30-60 minutes^−1. All MRI experiments were performed on a Bruker 11.7T MRI scanner. Baseline T2 (TR/TE=2,500/30 ms), susceptibility-weighted imaging (SWI) (TR/TE=378/8 ms), T1 (TR/TE 350/6.7 ms)-weighted, dynamic gradient echo echo-planar imaging (GE-EPI, TR/TE 1250/9.7 ms, field of view (FOV)=14×14 mm, matrix=128×128, acquisition time=60 s and 24 repetitions) and dynamic T1 imaging (TR/TE 2000/3. 5ms, field of view=14×14 mm, acquisition time=8 seconds and 20 repetitions) images of the brain were acquired. The microcatheter was connected to a syringe mounted on an MRI compatible programmable syringe pump (PHD 2000, Harvard Apparatus Inc.). Gadolinium (Gd; Prohance) dissolved in saline at 1:50 was infused intra-arterially at the rate of 150 μL minute^−1 under dynamic GE-EPI MRI for visualization of perfusion territory. […] To quantify BBB status, T1 intensities in cortex, hippocampus and thalamus/hypothalamus were compared between ipsilateral and contralateral hemispheres. T1 hyperintensity was corrected for possible asymmetry using pre-contrast T1 images and normalized as the ratio of ipsilateral to contralateral intensity. Additionally, the area of BBBO (mm^2) was calculated by conversion of T1 images to binary using the Auto Threshold function (plugin v1.17; Maximum Entropy method) [Kapur, J. N., P. K. Sahoo, and A. K. C. Wong, Computer Vision, Graphics, and Image Processing, 1985, 29(3): p. 273-285] in ImageJ. T2-weighted and SWI images were acquired at the same timepoints for detection of brain damage and microhemorrhage. Subsequently, animals were sacrificed for further histological assessment.
To determine the area and region of perfusion territory, we first calculated the contrast enhancement maps at the time where contrast enhancement was at its maximum. As Gd causes negative contrast under T2 imaging, we calculated the contrast enhancement as (SIpre-SIpost)/SIpre, where SI is the signal intensity of an MR image. Histogram was plotted for all pixels in the brain region in a contrast enhancement map and further fitted into two Gaussian distributions, assuming there were two dominant populations for non-contrast enhanced and contrast-enhanced pixels, respectively. The cutoff value to separate the two populations was then determined. The fraction of contrast enhanced areas was calculated by the ratio of the number of pixels, whose values are larger than the cutoff value, to the total number of pixels in the brain. A similar method was used to determine the BBBO territory.

CC[C@H](C)[C@H](NC(=O)CN)C(=O)NCC(=O)N[C@@H](C)C(=O)N[C@H](C(=O)N[C@@H](CC(C)C)C(=O)N[C@@H](CCCCN)C(=O)N[C@H](C(=O)N[C@@H](CC(C)C)C(=O)N[C@H](C(=O)N[C@H](C(=O)NCC(=O)N[C@@H](CC(C)C)C(=O)N1CCC[C@H]1C(=O)N[C@@H](C)C(=O)N[C@@H](CC(C)C)C(=O)N[C@H](C(=O)N[C@@H](CO)C(=O)N[C@@H](Cc1c[nH]c2ccccc12)C(=O)N[C@H](C(=O)N[C@@H](CCCCN)C(=O)N[C@@H](CCCNC(=N)N)C(=O)N[C@@H](CCCCN)C(=O)N[C@@H](CCCNC(=N)N)C(=O)N[C@@H](CCC(N)=O)C(=O)N[C@@H](CCC(N)=O)C(N)=O)[C@@H](C)CC)[C@@H](C)CC)[C@@H](C)O)[C@@H](C)O)C(C)C)C(C)C [melittin]
time high viability (≥98%) is maintained ([1]; 0.75 μM melittin): ~23 min | time for which viability is largely unaffected ([1]; 5 μM melittin): about 20 minutes | time high viability (≥98%) is maintained ([1]; 5 μM melittin): ~12 min | time at which the viability reached 50% (τ1/2) ([1]; 5 μM melittin, continuous exposure): ~30 min | time high viability (≥98%) is maintained ([1]; 10 μM melittin): ~12 min | decrease of viability ([1]; dose of 100 μM·minute): < 2% | cell division rate (dhBMECs in microvessels; across melittin doses 3-100 μM·minute): about 1 % h^−1 | cell loss rate following melittin exposure (dhBMECs in microvessels; doses 3-100 μM·minute): dose-dependent | turnover of dhBMECs (division rate minus loss rate) (dhBMECs in microvessels; doses 3-100 μM·minute): negative | cell response, GFP-tagged ZO1 dhBMEC microvessels (dhBMECs in microvessels; high melittin doses (100 μM·min)): cells contracted | Evans Blue leakage ([2]; 1 μM·minute): No leakage of Evans Blue | dose relative to solubility limit (fold below) ([2]; 3 μM·min melittin): ~120 fold | Evans Blue leakage ([2]; 3 μM·minute, ipsilateral hemisphere): reproducible leakage of Evans Blue | Evans Blue extravasation ([2]; 3 μM·minute, 24 hours): no Evans Blue extravasation | leakage of Gd (T1 MRI) ([2]; 3 μM·minute, 24 hours): marginal leakage | T1 hyperintensity ([2]; 3 μM·minute, cortex): much lower | BBB status (Gd-enhanced MRI and Evans Blue) ([2]; 3 μM·minute, day 7): full recovery of the BBB | T1 intensity, ipsilateral vs contralateral ([2]; 3 μM·minute, hippocampus and thalamus/hypothalamus, following dosing): significant increase | brain territory opened (area of BBBO, T1 thresholding) ([2]; 3 μM·minute, within the hippocampus, immediately after dosing): 5.70±1.73 mm^2 | Evans Blue leakage ([2]; 5 μM·minute): Widespread leakage of Evans Blue | reduction of BBBO area ([2]; at 24 hours and 7 days): ~20 fold | minimum effective dose for BBBO ([2]; intra-arterial (internal carotid artery), 1 minute): 3 µM·min | difference in dose required for BBBO, human microvessels (20 μM·minute) vs mouse brain (3 μM·minute) ([2]; mouse, in vivo): approximately 7 fold
